Assay type in all cases: in vivo
One experiment deals with Botrytis cinerea. Description: Test A: tomato seedlings sprayed, next day inoculated with Botrytis cinerea (tomato Botrytis), visual disease rating. The conditions noted are these: sprayed day before inoculation; for pest or weed control at 200 ppm / pest or weed control at 40 ppm: Botrytis cinerea; for pest or weed control at 200 ppm / Test A rating (disease control): 200 ppm test suspension; for pest or weed control at 40 ppm: 40 ppm test suspension (*). The text has this: (§1) General protocol for preparing test suspensions for Tests A-F: the test compounds were first dissolved in acetone in an amount equal to 3% of the final volume and then suspended at the desired concentration (in ppm) in acetone and purified water (50/50 mix) containing 250 ppm of the surfactant Trem® 014 (polyhydric alcohol esters). The resulting test suspensions were then used in Tests A-F. Spraying a 200 ppm test suspension to the point of run-off on the test plants was the equivalent of a rate of 500 g/ha. An asterisk “*” next to the rating value indicates a 40 ppm test suspension.
The test suspension was sprayed to the point of run-off on tomato seedlings. The following day the seedlings were inoculated with a spore suspension of Botrytis cinerea (the causal agent of tomato Botrytis) and incubated in saturated atmosphere at 20° C. for 48 h, and then moved to a growth chamber at 24° C. for 3 days, after which time visual disease ratings were made.
(§2) Results for Tests A-F are given in Table A. In the Table, a rating of 100 indicates 100% disease control and a rating of 0 indicates no disease control (relative to the controls). A dash (-) indicates no test results. All results are for 200 ppm except where followed by “*”, which indicates 40 ppm.

For the next experiment, the system named is Septoria tritici. The experiment is described as follows: Test D: wheat seedlings sprayed, next day inoculated with Septoria tritici (wheat leaf blotch), visual disease rating. The conditions noted are these: sprayed day before inoculation; for pest or weed control at 200 ppm / pest or weed control at 40 ppm: Zymoseptoria tritici; for pest or weed control at 200 ppm / Test D rating (disease control): 200 ppm test suspension; for pest or weed control at 40 ppm: 40 ppm test suspension (*).
Source text: as §1
The test suspension was sprayed to the point of run-off on wheat seedlings. The following day the seedlings were inoculated with a spore suspension of Septoria tritici (the causal agent of wheat leaf blotch) and incubated in saturated atmosphere at 24° C. for 48 h, and then moved to a growth chamber at 20° C. for 19 days, after which time visual disease ratings were made.
as §2

The test system of the next experiment is Erysiphe graminis. The experiment is described as follows: Test F: wheat seedlings sprayed, next day inoculated with Erysiphe graminis (wheat powdery mildew), visual disease rating. The conditions noted are these: sprayed day before inoculation; for pest or weed control at 200 ppm / pest or weed control at 40 ppm: Blumeria graminis; for pest or weed control at 200 ppm / Test F rating (disease control): 200 ppm test suspension; for pest or weed control at 40 ppm: 40 ppm test suspension (*).
Source text: as §1
The test suspension was sprayed to the point of run-off on wheat seedlings. The following day the seedlings were inoculated with a spore dust of Erysiphe graminis, (the causal agent of wheat powdery mildew) and incubated in a growth chamber at 20° C. for 8 days, after which time visual disease ratings were made.
as §2

In a further experiment the test system is Alternaria solani. The experiment is described as follows: Test B: tomato seedlings sprayed, next day inoculated with Alternaria solani (tomato early blight), visual disease rating. The conditions noted are these: sprayed day before inoculation; for pest or weed control at 200 ppm / pest or weed control at 40 ppm: Alternaria solani; for pest or weed control at 200 ppm / Test B rating (disease control): 200 ppm test suspension; for pest or weed control at 40 ppm: 40 ppm test suspension (*).
Source text: as §1
The test suspension was sprayed to the point of run-off on tomato seedlings. The following day the seedlings were inoculated with a spore suspension of Alternaria solani (the causal agent of tomato early blight) and incubated in a saturated atmosphere at 27° C. for 48 h, and then moved to a growth chamber at 20° C. for 5 days, after which time visual disease ratings were made.
as §2

Experiment [1] relates to Puccinia recondita f. sp. tritici. Description: Test E2: wheat seedlings sprayed, next day inoculated with Puccinia recondita f. sp. tritici (wheat leaf rust), visual disease rating. The conditions noted are these: sprayed day before inoculation; for pest or weed control at 200 ppm / pest or weed control at 40 ppm: Puccinia recondita; for pest or weed control at 200 ppm / Test E2 rating (disease control): 200 ppm test suspension; for pest or weed control at 40 ppm: 40 ppm test suspension (*).
Source text: as §1
The test suspension was sprayed to the point of run-off on wheat seedlings. The following day the seedlings were inoculated with a spore suspension of Puccinia recondita f. sp. tritici (the causal agent of wheat leaf rust) and incubated in a saturated atmosphere at 20° C. for 24 h, and then moved to a growth chamber at 20° C. for 7 days, after which time visual disease ratings were made.
as §2

Another experiment concerns Septoria nodorum. Description: Test C: wheat seedlings sprayed, next day inoculated with Septoria nodorum (wheat glume blotch), visual disease rating. The conditions noted are these: sprayed day before inoculation; for pest or weed control at 200 ppm / pest or weed control at 40 ppm: Parastagonospora nodorum; for pest or weed control at 200 ppm / Test C rating (disease control): 200 ppm test suspension; for pest or weed control at 40 ppm: 40 ppm test suspension (*).
Source text: as §1
The test suspension was sprayed to the point of run-off on wheat seedlings. The following day the seedlings were inoculated with a spore suspension of Septoria nodorum (the causal agent of wheat glume blotch) and incubated in a saturated atmosphere at 24° C. for 48 h, and then moved to a growth chamber at 20° C. for 6 days, after which time visual disease ratings were made.
as §2

Regarding `COc1cc(OC)cc(-c2cnnc(C)c2-c2c(F)cc(F)cc2F)c1` [Compound 6, 5-(3,5-dimethoxyphenyl)-3-methyl-4-(2,4,6-trifluorophenyl)pyridazine], the pest or weed control at 200 ppm in the experiment with Botrytis cinerea was 97%; with Septoria tritici, 93%; in the experiment with Erysiphe graminis it was 100%; with Alternaria solani, 100%; in experiment [1], 100%; in the experiment on Septoria nodorum, 96%.
Regarding `COc1cc(OC)cc(-c2c(C)nnc(Cl)c2-c2c(F)cc(F)cc2F)c1` [Compound 8, 3-chloro-5-(3,5-dimethoxyphenyl)-6-methyl-4-(2,4,6-trifluorophenyl)-pyridazine], the pest or weed control at 40 ppm in the experiment on Botrytis cinerea came to 100%; in the experiment on Septoria tritici, 99%; in the experiment with Erysiphe graminis, 99%; with Alternaria solani it was 100%; in experiment [1], 100%; with Septoria nodorum, 100%.
In the case of `COc1cc(OC)cc(-c2c(C)nnc(C)c2-c2c(F)ccc(F)c2F)c1` [Compound 17, 4-(3,5-dimethoxyphenyl)-3,6-dimethyl-5-(2,3,6-trifluorophenyl)pyridazine], the pest or weed control at 200 ppm with Botrytis cinerea is 100%; with Septoria tritici, 99%; in the experiment with Erysiphe graminis, 100%; in the experiment on Alternaria solani, 100%; in experiment [1], 100%; in the experiment with Septoria nodorum it was 99%.
For `COc1cc(OC)cc(-c2c(Cl)nnc(C)c2-c2c(F)cc(F)cc2F)c1` [Compound 12, 3-chloro-4-(3,5-dimethoxyphenyl)-6-methyl-5-(2,4,6-trifluorophenyl)pyridazine], the pest or weed control at 40 ppm with Botrytis cinerea amounted to 99%; with Septoria tritici, 99%; in the experiment on Erysiphe graminis it was 100%; with Alternaria solani, 100%; in experiment [1], 100%; with Septoria nodorum it was 99%.
For `COc1cc(OC)cc(-c2c(C)nnc(C)c2-c2c(F)cc(F)cc2F)c1` [Compound 9, 4-(3,5-dimethoxyphenyl)-3,6-dimethyl-5-(2,4,6-trifluorophenyl)pyridazine], the pest or weed control at 40 ppm with Botrytis cinerea worked out at 100%; with Septoria tritici, 100%; in the experiment on Erysiphe graminis, 100%; with Alternaria solani, 99%; in experiment [1], 100%; with Septoria nodorum, 100%.
As to `COc1cc(OC)cc(-c2c(C)nnc(Cl)c2-c2c(F)ccc(F)c2F)c1` [Compound 15, 3-chloro-5-(3,5-dimethoxyphenyl)-6-methyl-4-(2,3,6-trifluorophenyl)pyridazine], the pest or weed control at 200 ppm in the experiment on Botrytis cinerea stood at 100%; in the experiment with Septoria tritici, 99%; in the experiment with Erysiphe graminis, 99%; in the experiment on Alternaria solani, 100%; in experiment [1], 100%; in the experiment with Septoria nodorum, 84%.
As for `COc1ccc(-c2c(C)nnc(Cl)c2-c2cc(OC)cc(OC)c2)cc1` [Compound 2], the “Test A rating (disease control)” value in the experiment with Botrytis cinerea was 95%. The “Test D rating (disease control)” value in the experiment on Septoria tritici is 62%. Also, the “Test F rating (disease control)” value in the experiment on Erysiphe graminis stood at 26%. Also, the “Test B rating (disease control)” value in the experiment with Alternaria solani turned out to be 58%. Further, the “Test E2 rating (disease control)” value in experiment [1] is listed as 74%. Also, the “Test C rating (disease control)” value in the experiment with Septoria nodorum came out at 0%.
As to `COc1cc(OC)cc(-c2c(C)nnc(C)c2-c2c(F)cccc2F)c1` [Compound 31], the “Test A rating (disease control)” value with Botrytis cinerea is reported as 100%. Besides, the “Test D rating (disease control)” value in the experiment with Septoria tritici is 100%. The “Test F rating (disease control)” value in the experiment with Erysiphe graminis is on record as 98%. Further, in the experiment on Alternaria solani, the “Test B rating (disease control)” value is listed as 99%. Besides, the “Test E2 rating (disease control)” value in experiment [1] amounted to 99%. Also, the “Test C rating (disease control)” value in the experiment with Septoria nodorum is 100%.
`COc1cc(OC)cc(-c2c(Cl)nnc(C)c2-c2c(F)cccc2F)c1` [Compound 4, 3-chloro-4-(3,5-dimethoxyphenyl)-6-methyl-5-(2,6-difluorophenyl)pyridazine]: the pest or weed control at 200 ppm in the experiment on Botrytis cinerea is 95%; in the experiment with Septoria tritici it was 98%; in the experiment with Erysiphe graminis, 95%; in the experiment on Alternaria solani, 97%; in experiment [1], 100%; with Septoria nodorum, 0%.
Regarding `COc1cc(OC)cc(-c2c(Cl)nnc(C)c2-c2ccc(F)cc2)c1` [Compound 13], the “Test A rating (disease control)” value in the experiment on Botrytis cinerea turned out to be 8%. Further, in the experiment on Septoria tritici, the “Test D rating (disease control)” value came to 45%. The “Test F rating (disease control)” value with Erysiphe graminis was 39%. Also, in the experiment with Alternaria solani, the “Test B rating (disease control)” value turned out to be 0%. The “Test E2 rating (disease control)” value in experiment [1] was 19%. For the same molecule, the “Test C rating (disease control)” value in the experiment with Septoria nodorum was found to be 0%.
As to `COc1cc(OC)c(Cl)c(-c2c(C)nnc(Cl)c2-c2c(F)cccc2F)c1` [Compound 28], the “Test A rating (disease control)” value in the experiment on Botrytis cinerea came out at 100%. In addition, the “Test D rating (disease control)” value in the experiment on Septoria tritici stood at 100%. Besides, the “Test F rating (disease control)” value in the experiment with Erysiphe graminis turned out to be 100%. Moreover, the “Test B rating (disease control)” value in the experiment on Alternaria solani is 100%. In experiment [1], the “Test E2 rating (disease control)” value is given as 100%. Further, the “Test C rating (disease control)” value with Septoria nodorum was determined as 78%.
With `COc1cc(OC)cc(-c2c(Cl)nnc(C)c2-c2ccc(F)cc2F)c1` [Compound 3], in the experiment on Botrytis cinerea, the “Test A rating (disease control)” value is listed as 91%. Besides, the “Test D rating (disease control)” value in the experiment with Septoria tritici came out at 97%. Further, in the experiment on Erysiphe graminis, the “Test F rating (disease control)” value came to 79%. For the same molecule, in the experiment on Alternaria solani, the “Test B rating (disease control)” value is recorded as 31%. Further, in experiment [1], the “Test E2 rating (disease control)” value is listed as 97%. Also, the “Test C rating (disease control)” value in the experiment on Septoria nodorum amounted to 0%.
Consider `COc1cc(OC)cc(-c2c(C)nnc(C)c2-c2c(F)cc(OC)cc2F)c1` [Compound 11, 4-(2,6-difluoro-4-methoxyphenyl)-5-(3,5-dimethoxyphenyl)-3,6-dimethylpyridazine], for which the pest or weed control at 40 ppm in the experiment with Botrytis cinerea was 100%; in the experiment with Septoria tritici, 100%; in the experiment with Erysiphe graminis it was 100%; in the experiment on Alternaria solani, 100%; in experiment [1], 100%; in the experiment with Septoria nodorum, 99%.
In the case of `COc1cc(OC)c(Cl)c(-c2c(C)nnc(C)c2-c2c(F)cccc2F)c1Cl` [Compound 34], the “Test A rating (disease control)” value in the experiment with Botrytis cinerea is 100%. Also, in the experiment on Septoria tritici, the “Test D rating (disease control)” value is 100%. Also, the “Test F rating (disease control)” value in the experiment with Erysiphe graminis is reported as 97%. Besides, the “Test B rating (disease control)” value in the experiment with Alternaria solani was determined as 0%. The “Test E2 rating (disease control)” value in experiment [1] turned out to be 100%. For the same molecule, the “Test C rating (disease control)” value with Septoria nodorum turned out to be 0%.
On to `COc1cc(OC)c(Cl)c(-c2c(C)nnc(Cl)c2-c2c(F)cc(F)cc2F)c1` [Compound 23, 3-chloro-5-(2-chloro-3,5-dimethoxyphenyl)-6-methyl-4-(2,4,6-trifluoro-phenyl)pyridazine], for which the pest or weed control at 40 ppm (with Botrytis cinerea; in the experiment on Septoria tritici; in the experiment on Erysiphe graminis; in the experiment on Alternaria solani; in experiment [1]; with Septoria nodorum) was 100% each time.
As to `COc1cc(OC)cc(-c2c(C)nnc(Cl)c2-c2c(F)cc(OC)cc2F)c1` [Compound 10, 3-chloro-4-(2,6-difluoro-4-methoxyphenyl)-5-(3,5-dimethoxyphenyl)-6-methylpyridazine], the pest or weed control at 40 ppm with Botrytis cinerea was 100%; in the experiment on Septoria tritici, 99%; with Erysiphe graminis, 99%; in the experiment with Alternaria solani, 100%; in experiment [1] it was 100%; in the experiment with Septoria nodorum, 98%.

These data come from US20120135995A1, “FUNGICIDAL DIPHENYL-SUBSTITUTED PYRIDAZINES” (E.I. Dupont de Nemours and Company, priority 2009, published 2012).
